# Reference: the supplement of paper PMC10290057
# Legend:
# HCT116 [1] = assay: AC50 cell viability (CellTiter-Glo); higher = less potent; conditions: 48 h
# HCT116 [2] = assay: efficacy (fitted maximal change in viability relative to DMSO control); higher = less cytotoxic (negative = loss of viability); conditions: 48 h
# 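Wherever AC50 cell viability (CellTiter-Glo) is given: HCT116 colorectal carcinoma cells screened at five concentrations per compound, luminescent viability scaled between DMSO wells and empty wells on each plate, curves fitted per compound.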
# 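Wherever efficacy (fitted maximal change in viability relative to DMSO control) is given: Luminescence-based viability readout, five doses per compound, normalized against on-plate DMSO and empty-well controls, followed by dose-response curve fitting for every drug.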
smiles,measurement,setting,value
c1cc(-c2cnn3cc(-c4ccc(N5CCNCC5)cc4)cnc23)c2cccnc2c1,AC50 cell viability,HCT116 [1],6.61 µM
same,efficacy,HCT116 [2],-81.9%
CC(/C=C/[C@@H]1C[C@]1(C)c1ccc2c(c1)C(C)(C)CCC2(C)C)=C\C(=O)O,AC50 cell viability,HCT116 [1],23.5 µM
same,efficacy,HCT116 [2],-66.8%
Cc1cnc(Nc2ccc(OCCN3CCCC3)cc2)nc1Nc1cccc([S+](=O)([O-])NC(C)(C)C)c1,AC50 cell viability,HCT116 [1],2.63 µM
same,efficacy,HCT116 [2],-109%
Cc1cc(N2CCOCC2)ccc1Nc1nc(NC2CCCCC2)c2nc[nH]c2n1,AC50 cell viability,HCT116 [1],6.61 µM
same,efficacy,HCT116 [2],-59.2%
Cc1ccc(C(C)(O)c2nc3ccccc3s2)c(C)c1 (centres undefined),AC50 cell viability,HCT116 [1],16.6 µM
same,efficacy,HCT116 [2],-43.4%
Cc1c[nH]c(-c2cnc(NCCNc3ccc(C#N)cn3)nc2-c2ccc(Cl)cc2Cl)n1,AC50 cell viability,HCT116 [1],26.3 µM
same,efficacy,HCT116 [2],-72.6%
Cc1nc2ccc(-n3ncc(C(=O)c4cc5ccccc5[nH]4)c3N)cc2[nH]1,AC50 cell viability,HCT116 [1],8.33 µM
same,efficacy,HCT116 [2],-71.3%
CC1CC2=CC=CC=C2N1C(=O)C\C3=N\C(=O)\C=C(/N3)N4CCOCC4 (centres undefined),AC50 cell viability,HCT116 [1],18.6 µM
same,efficacy,HCT116 [2],-57.5%
CCN1CCN(CC1)CC(=O)NC2=CC=C(C3=C2C4=C(S3)C=CC=C4)C5=C6O\C(=C/C(=O)C6=CC=C5)N7CCOCC7,AC50 cell viability,HCT116 [1],1.29 µM
same,efficacy,HCT116 [2],-81.5%
CCN1\C(=C(C(=O)NC)/C(=O)C2=C1N=C(C=C2)C#CC(C)(O)COC)N (centres undefined),AC50 cell viability,HCT116 [1],18.6 µM
same,efficacy,HCT116 [2],-31.1%
CCNC(=O)Nc1ccc(Oc2ncnc(N)c2/C=N/OC)cc1Cl,AC50 cell viability,HCT116 [1],23.5 µM
same,efficacy,HCT116 [2],-70.7%
CN(C)CCN(C)C(=O)c1ccc(NC(=O)Nc2ccc(-c3nc(N4CCOCC4)c4ccn(CC(F)(F)F)c4n3)cc2)cc1,AC50 cell viability,HCT116 [1],0.263 µM
same,efficacy,HCT116 [2],-118%
Cn1cc(-c2cnn3c(N)c(Br)c([C@@H]4CCCNC4)nc23)cn1,AC50 cell viability,HCT116 [1],13.2 µM
same,efficacy,HCT116 [2],-108%
COc1ccccc1N1CCN(CCN(C(=O)C2CCCCC2)c2ccccn2)CC1,AC50 cell viability,HCT116 [1],13.2 µM
same,efficacy,HCT116 [2],-31.7%
COc1cc2c(Nc3ccc(NC(=O)c4ccccc4)cc3)ncnc2cc1OCCCN1CCOCC1,AC50 cell viability,HCT116 [1],18.6 µM
same,efficacy,HCT116 [2],-120%
COc1cc(OC)c(/C=C/[S+](=O)([O-])Cc2ccc(OC)c(NCC(=O)[O-])c2)c(OC)c1,AC50 cell viability,HCT116 [1],0.0661 µM
same,efficacy,HCT116 [2],-58.9%
COc1cc2ncnc(Nc3cccc(Br)c3)c2cc1OC,AC50 cell viability,HCT116 [1],20.9 µM
same,efficacy,HCT116 [2],-53%
C[C@@H]1CCNC(=O)c2cc3ccc(C(=O)Nc4nc5ccccc5n4CCCN(C)C)cc3n21,AC50 cell viability,HCT116 [1],11.8 µM
same,efficacy,HCT116 [2],-92.3%
C[C@H](CN(C)C)Oc1nc(Nc2cc3cccc(Cl)c3cn2)cnc1C#N,AC50 cell viability,HCT116 [1],3.32 µM
same,efficacy,HCT116 [2],-31.2%
C[C@H]1C[C@@H](n2c(Nc3ccc(OC(F)(F)F)cc3)nc3cc(CCC(=O)O)ccc32)CC(C)(C)C1,AC50 cell viability,HCT116 [1],20.9 µM
same,efficacy,HCT116 [2],-65%
Cn1ncc2cc(-c3cnc(N)c(Cl)c3N3CCC4(CCNC4=O)CC3)ccc21,AC50 cell viability,HCT116 [1],16.6 µM
same,efficacy,HCT116 [2],-46.1%
N#Cc1ccc(Cn2cncc2CN2CCN(c3cccc(Cl)c3)C(=O)C2)cc1,AC50 cell viability,HCT116 [1],0.332 µM
same,efficacy,HCT116 [2],-46%
O=C(Nc1cnccc1Cl)N1CCN(Cc2ccc3c(c2)OC(F)(F)O3)CC1,AC50 cell viability,HCT116 [1],14.8 µM
same,efficacy,HCT116 [2],-56.5%
O=C(NC1CC1)c1cccc(-c2ccc3c(NC(=O)C4CC4)n[nH]c3c2)c1,AC50 cell viability,HCT116 [1],9.34 µM
same,efficacy,HCT116 [2],-52.3%
Oc1ccc(C2CCN(c3ccnc4ccccc34)CC2)cc1O,AC50 cell viability,HCT116 [1],11.8 µM
same,efficacy,HCT116 [2],-49%
OC1CCC(Nc2ncc3nc(Nc4c(F)cc(F)cc4F)n([C@@H]4CCOC4)c3n2)CC1 (some centres undefined),AC50 cell viability,HCT116 [1],18.6 µM
same,efficacy,HCT116 [2],-43.3%
O=C(N[C@H]1CCC[C@H](CO)C1)C1CCN(c2nc3cc(Cl)c(-c4ccc(Cl)cc4)cc3o2)CC1,AC50 cell viability,HCT116 [1],23.5 µM
same,efficacy,HCT116 [2],-83.2%
